Measurements reported in ChEMBL document CHEMBL1136459, “New antibacterial tetrahydro-4(2H)-thiopyran and thiomorpholine S-oxide and S,S-dioxide phenyloxazolidinones” (Bioorg Med Chem Lett, 2003).
Values after ≈ are worked out from the molar mass of the structure shown.

Key:
[1] = system: Haemophilus influenzae; test: In vitro antibacterial activity against Haemophilia influenzae strains 30063 and ATCC 31517 (HI); range is 4-8; format: functional
[2] = system: Moraxella catarrhalis; test: In vitro antibacterial activity against Moraxella catarrhalis strains 30607 and 30603 (MC).; format: functional
[3] = system: Mus musculus; test: In vivo Efficacy of compound after peroral administration in mouse; format: functional; settings: po
[4] = system: Staphylococcus epidermidis; test: In vitro antibacterial activity against Staphylococcus epidermidis strains UC12084, 30031, and CDC-CNS90 (SE); range is 1-2; format: functional
[5] = system: Staphylococcus aureus; test: In vitro antibacterial activity against Staphylococcus aureus strains UC12673, UC9213, ATCC 29213, and UC9271 (SA); range is 2-4; format: functional
[6] = system: Staphylococcus aureus; test: In vitro antibacterial activity against linezolid-resistant Staphylococcus aureus ATCC 29213 (LRSA).; format: functional
[7] = system: Enterococcus faecium; test: In vitro antibacterial activity against vancomycin-resistant Enterococcus faecium UC12712 (VRE).
[8] = system: Streptococcus pneumoniae; test: In vitro antibacterial activity against Streptococcus pneumoniae strains ATCC 6305 and 31573 (SPN); range is 0.5-1
[9] = system: Haemophilus influenzae; test: In vitro antibacterial activity against Haemophilia influenzae strains ATCC 30063 and ATCC 31517; format: functional
[10] = system: Moraxella catarrhalis; test: In vitro antibacterial activity against Moraxella catarrhalis strains 30607 and 30603 (MC); range is 8-16; format: functional
[11] = system: Staphylococcus aureus; test: In vitro antibacterial activity against Staphylococcus aureus strains UC12673, UC9213, ATCC 29213, and UC9271 (SA); range is 16-32; format: functional
[12] = system: Staphylococcus epidermidis; test: In vitro antibacterial activity against Staphylococcus epidermidis strains UC12084, 30031, and CDC-CNS90 (SE); format: functional
[13] = system: Staphylococcus aureus; test: In vitro antibacterial activity against Staphylococcus aureus strains UC12673, UC9213, ATCC 29213, and UC9271 (SA); range is 4-8; format: functional
[14] = system: Streptococcus pneumoniae; test: In vitro antibacterial activity against Streptococcus pneumoniae strains ATCC6305 and 31573 (SPN).
[15] = system: Haemophilus influenzae; test: In vitro antibacterial activity against Haemophilia influenzae strains 30063 and ATCC 31517 (HI); range is 32-64; format: functional
[16] = system: Staphylococcus epidermidis; test: In vitro antibacterial activity against Staphylococcus epidermidis strains UC12084, 30031, and CDC-CNS90 (SE); range is 4-8; format: functional
[17] = system: Staphylococcus aureus; test: In vitro antibacterial activity against Staphylococcus aureus strains UC12673, UC9213, ATCC 29213, and UC9271 (SA); range is 8-32; format: functional
[18] = system: Streptococcus pneumoniae; test: In vitro antibacterial activity against Streptococcus pneumoniae strains ATCC 6305 and 31573 (SPN); range is 4-8
[19] = system: Staphylococcus aureus; test: In vitro antibacterial activity against Staphylococcus aureus strains UC12673, UC9213, ATCC 29213, and UC9271 (SA); format: functional
[20] = system: Staphylococcus epidermidis; test: In vitro antibacterial activity against Staphylococcus epidermidis strains UC12084, 30031, and CDC-CNS90 (SE); range is 2-4; format: functional
[21] = system: Haemophilus influenzae; test: In vitro antibacterial activity against Haemophilia influenzae strains 30063 and ATCC 31517 (HI); range is 8-32; format: functional
[22] = system: Streptococcus pneumoniae; test: In vitro antibacterial activity against Streptococcus pneumoniae strains ATCC 6305 and 31573 (SPN); range is 2-4
[23] = system: Haemophilus influenzae; test: In vitro antibacterial activity against Haemophilia influenzae strains 30063 and ATCC 31517 (HI); range is 16-32; format: functional
[24] = system: Staphylococcus aureus; test: In vitro antibacterial activity against Staphylococcus aureus strains UC12673, UC9213, ATCC 29213, and UC9271 (SA); range is 8-16; format: functional
[25] = system: Staphylococcus epidermidis; test: In vitro antibacterial activity against Staphylococcus epidermidis strains UC12084, 30031, and CDC-CNS90 (SE); range is 0.5-1; format: functional
[26] = system: Haemophilus influenzae; test: In vitro antibacterial activity against Haemophilia influenzae strains 30063 and ATCC 31517 (HI); range is 8-16; format: functional
[27] = system: Mus musculus; test: In vivo Efficacy of compound after peroral administration to protect the Staphylococcus aureus mouse septicemia model; format: functional; settings: po

Row | SMILES | MIC [2] | MIC [4] | MIC [6] | MIC [7] | MIC [9] | MIC [12] | other results
1 | O=C(CF)NC[C@H]1CN(c2ccc(C3CC[S+]([O-])CC3)c(F)c2)C(=O)O1 (stereo partly drawn) | 8 µg/mL (≈ 20.7 µM) | 1 µg/mL (≈ 2.59 µM) | 32 µg/mL (≈ 82.8 µM) | 4 µg/mL (≈ 10.4 µM) |  |  | MIC [1]: 4 µg/mL (≈ 10.4 µM); ED50 [3]: 3.75 mg/kg; MIC [5]: 2 µg/mL (≈ 5.18 µM); MIC [8]: 0.5 µg/mL (≈ 1.29 µM)
2 | O=C(NC[C@H]1CN(c2ccc(N3CC[S+]([O-])CC3)c(F)c2)C(=O)O1)C1CC1 |  |  | 64 µg/mL (≈ 162 µM) | 4 µg/mL (≈ 10.1 µM) | 32 µg/mL (≈ 80.9 µM) | 4 µg/mL (≈ 10.1 µM) | MIC [10]: 8 µg/mL (≈ 20.2 µM); MIC [11]: 16 µg/mL (≈ 40.5 µM)
3 | CC(=O)NC[C@H]1CN(c2ccc(N3CC[S+]([O-])CC3)c(F)c2)C(=O)O1 | 4 µg/mL (≈ 10.8 µM) | 1 µg/mL (≈ 2.71 µM) | > 64 µg/mL | 2 µg/mL (≈ 5.41 µM) |  |  | MIC [1]: > 4 µg/mL; MIC [13]: 4 µg/mL (≈ 10.8 µM); MIC [14]: 1 µg/mL (≈ 2.71 µM)
4 | CC(=O)Nc1ccc(/C=C/C(=O)NC[C@H]2CN(c3ccc(N4CC[S+]([O-])CC4)c(F)c3)C(=O)O2)cc1 | 16 µg/mL (≈ 31.1 µM) | 1 µg/mL (≈ 1.94 µM) | > 64 µg/mL | 8 µg/mL (≈ 15.5 µM) | > 64 µg/mL |  | MIC [13]: 4 µg/mL (≈ 7.77 µM)
5 | O=C(NC[C@H]1CN(c2ccc(N3CCS(=O)(=O)CC3)c(F)c2)C(=O)O1)c1csnn1 | 32 µg/mL (≈ 70.3 µM) |  | 32 µg/mL (≈ 70.3 µM) | 16 µg/mL (≈ 35.1 µM) |  |  | MIC [15]: 32 µg/mL (≈ 70.3 µM); MIC [16]: 4 µg/mL (≈ 8.78 µM); MIC [17]: 8 µg/mL (≈ 17.6 µM); MIC [18]: 4 µg/mL (≈ 8.78 µM)
6 | CC(=O)NC[C@H]1CN(c2ccc(N3CCS(=O)(=O)CC3)c(F)c2)C(=O)O1 | 4 µg/mL (≈ 10.4 µM) |  | 64 µg/mL (≈ 166 µM) | 2 µg/mL (≈ 5.19 µM) |  | 1 µg/mL (≈ 2.59 µM) | MIC [1]: 4 µg/mL (≈ 10.4 µM); MIC [19]: 4 µg/mL (≈ 10.4 µM); MIC [8]: 0.5 µg/mL (≈ 1.3 µM)
7 | O=C1O[C@@H](CNC(=O)C(F)(F)F)CN1c1ccc(C2CCS(=O)(=O)CC2)c(F)c1 | 8 µg/mL (≈ 18.2 µM) |  | 64 µg/mL (≈ 146 µM) | 8 µg/mL (≈ 18.2 µM) |  |  | MIC [20]: 2 µg/mL (≈ 4.56 µM); MIC [21]: > 8 µg/mL; MIC [17]: 8 µg/mL (≈ 18.2 µM)
8 | O=C(CO)NC[C@H]1CN(c2ccc(C3CC[S+]([O-])CC3)c(F)c2)C(=O)O1 (stereo partly drawn) | 8 µg/mL (≈ 20.8 µM) |  | 64 µg/mL (≈ 166 µM) | 8 µg/mL (≈ 20.8 µM) | 8 µg/mL (≈ 20.8 µM) | 4 µg/mL (≈ 10.4 µM) | MIC [11]: 16 µg/mL (≈ 41.6 µM); MIC [22]: 2 µg/mL (≈ 5.2 µM)
9 | CSCC(=O)NC[C@H]1CN(c2ccc(C3CCS(=O)(=O)CC3)c(F)c2)C(=O)O1 | 8 µg/mL (≈ 18.6 µM) |  | 64 µg/mL (≈ 149 µM) | 4 µg/mL (≈ 9.29 µM) |  | 2 µg/mL (≈ 4.65 µM) | MIC [13]: 4 µg/mL (≈ 9.29 µM); MIC [21]: 8 µg/mL (≈ 18.6 µM)
10 | O=C(CC(F)(F)F)NC[C@H]1CN(c2ccc(N3CCS(=O)(=O)CC3)c(F)c2)C(=O)O1 | 16 µg/mL (≈ 35.3 µM) |  | > 64 µg/mL | 4 µg/mL (≈ 8.82 µM) |  | 4 µg/mL (≈ 8.82 µM) | MIC [23]: 16 µg/mL (≈ 35.3 µM); MIC [24]: 8 µg/mL (≈ 17.6 µM)
11 | O=C1O[C@@H](CNC(=O)C(F)(F)F)CN1c1ccc(C2CC[S+]([O-])CC2)c(F)c1 (stereo partly drawn) | 8 µg/mL (≈ 18.9 µM) |  | 32 µg/mL (≈ 75.8 µM) | 4 µg/mL (≈ 9.47 µM) |  |  | MIC [19]: 8 µg/mL (≈ 18.9 µM); MIC [20]: 2 µg/mL (≈ 4.73 µM); MIC [21]: 8 µg/mL (≈ 18.9 µM)
12 | CC(=O)NC[C@H]1CN(c2ccc(C3CC[S+]([O-])CC3)c(F)c2)C(=O)O1 (stereo partly drawn) |  |  | 64 µg/mL (≈ 174 µM) | 2 µg/mL (≈ 5.43 µM) | 8 µg/mL (≈ 21.7 µM) |  | MIC [10]: > 8 µg/mL; MIC [19]: 4 µg/mL (≈ 10.9 µM); MIC [25]: 0.5 µg/mL (≈ 1.36 µM); MIC [14]: 0.5 µg/mL (≈ 1.36 µM)
13 | CC(=O)NC[C@H]1CN(c2ccc(N3CCOCC3)c(F)c2)C(=O)O1 [LINEZOLID] |  | 1 µg/mL (≈ 2.96 µM) | 64 µg/mL (≈ 190 µM) |  |  |  | MIC [26]: > 8 µg/mL; ED50 [27]: 5 mg/kg
